pIC50: −log10 of the molar value. Read-outs that look alike come from different tables or passages of the source. *1 amine or outer side, *2 acyl side, *3 side chain or, on linkers, in order; H or OH if unused. Where a SMILES comes first, the peptide text is derived from it. Bridges are numbered along the chain shown (N, C = ends). [ ]: non-standard residue; d: D form. ξ: configuration not given here. Ala(9-anthryl) = N[C@@H](Cc1c2ccccc2cc2ccccc12)C(=O)O; ξαMeNle(6-ylidene) = CC(CCCC=[*:3])(N[*:1])C(=O)[*:2]; Phe(3-Cl) = N[C@@H](Cc1cccc(Cl)c1)C(=O)O; Phe(4-Br) = N[C@@H](Cc1ccc(Br)cc1)C(=O)O; 2Nal = N[C@@H](Cc1ccc2ccccc2c1)C(=O)O; Ala(cPent) = N[C@@H](CC1CCCC1)C(=O)O; Cha = N[C@@H](CC1CCCCC1)C(=O)O; AllylGly = C=CC[C@H](N)C(=O)O
Legend:
ileum = experiment: Ileum relaxation assay ex vivo; set-up: species or system rat; details: 10^−11 to 10^−6 M, after contraction with carbachol
Description: The functional ileum bioassay was carried out as described in detail elsewhere. (Van der Poorten, O., Van Den Hauwe, R., Eiselt, E., Betti, C., Guillemyn, K., Chung, N. N., Hall, F., Bihel, F., Schiller, P. W., Tourwé, D., Sarret, P., Gendron, L, . . . Ballet, S. (2017). X-Space Screening of Dermorphin-Based Tetrapeptides through Use of Constrained Arylazepinone and Quinolinone Scaffolds. ACS medicinal chemistry letters, 8(11), 1177-1182) Briefly, rats were euthanized, and 2 cm ileum segments were dissected out before removal of extraneous fat and connective tissue.
The ileum was then mounted under 0.5-g tension in a 10 mL organ bath containing warmed (37° C.) and oxygenated (95% O2, 5% CO2) Krebs solution (6.9 g/L NaCl, 0.145 g/L MgSO4, 2.1 g/L NaHCO3, 0.35 g/L KCl, 0.165 g/L KH2PO4, 1.98 g/L dextrose and 0.28 g/L CaCl2)). […] Contractions of the muscle were recorded via an isometric force transducer (159901A, Radnoti, Monrovia, CA, USA). […]
Each concentration of the compounds tested were followed by 2×15-min washout periods in Krebs solution to allow full relaxation. Dose-response curves were obtained with NT (8-13) (10^−11 to 10^−6) as standard for each ileum and for compound 34(10^−11 to 10^−5) and IC50 values were determined. […]
Data are expressed as mean±standard errors of the mean (SEM). […]

hNTS2 receptor = molecular target: T1, hNTS2 receptor (Homo sapiens, UniProt O95665); experiment: Competitive radioligand binding assay on the hNTS2 receptor; details: for pIC50: IC50 NTS2, displacement of 125I-[Tyr3]-NT; for pIC50 / IC50: membranes of 1321N1 cells expressing hNTS2; for Selectivity: ratio IC50 for NTS1 : IC50 for NTS2; for IC50: displacement of 125I-[Tyr3]-NT, read-out: IC50 NTS2 (converted)
T1 construct: membranes prepared from them
T1 sequence (O95665 whole entry): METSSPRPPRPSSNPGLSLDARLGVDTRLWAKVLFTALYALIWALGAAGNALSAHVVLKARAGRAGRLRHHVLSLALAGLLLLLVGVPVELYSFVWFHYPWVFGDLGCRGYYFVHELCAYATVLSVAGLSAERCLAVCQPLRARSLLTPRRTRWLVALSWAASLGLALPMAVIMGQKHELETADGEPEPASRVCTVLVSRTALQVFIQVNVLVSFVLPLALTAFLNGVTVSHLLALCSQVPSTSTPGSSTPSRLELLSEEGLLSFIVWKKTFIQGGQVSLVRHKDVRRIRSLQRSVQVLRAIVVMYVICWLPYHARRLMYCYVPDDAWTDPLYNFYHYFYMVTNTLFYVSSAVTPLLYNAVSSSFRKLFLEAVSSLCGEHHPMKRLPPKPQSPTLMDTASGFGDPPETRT
Outline: (§1)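 Membranes from CHO-K1 cells expressing hNTS1 (15 µg, […] ¹²⁵I-[Tyr³]-NT) or 1321N1 cells expressing hNTS2 (50 µg, […] radioligand) were incubated with analogues at 10⁻¹¹–10⁻⁴ M for 60 min at 25 °C in Tris-HCl pH 7.5/0.2% BSA. Filtration and γ-counting followed; nonspecific binding was defined with 10⁻⁵ M NT(8-13), and IC50 was obtained by one-site fit.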

Sprague-Dawley rats = experiment: Tail-flick test (acute thermal pain), intrathecal injection; assay type: in vivo, rat; details: 61 nmol/kg i.t.
Description: Rats were housed two per cage on Aspen shavings in a quiet room and kept on a 12 h light/dark cycle and allowed ad libitum access to food and water. The experimental procedures in this study were approved by the Animal Care Committee of Université de Sherbrooke and were in accordance with policies and directives of the Canadian Council on Animal Care.
Tail-flick test: The tail flick test was used as outcome measures heat-induced pain in animals and as indicators of a compound's analgesic efficacy.
Acute pain was assessed using the Tail flick test (Tail Flick Analgesia meterV2.00, Colombus Instruments, Columbus, Ohio, USA). Tail flick test measures sensitivity to a high-intensity light beam focused on the rat tail. The tail flick apparatus was set at a light intensity of 6 and a cutoff of 10 seconds. The latency to flick the tail out of the path of the light beam corresponds to the measure of pain sensitivity or analgesia.
Before testing, animals were individually acclimatized to manipulations and behavioral apparatus 5 min/day for three consecutive days. On the test day, latencies baseline measures were taken before drug injection to provide a mean baseline. The compounds were diluted in 0.9% saline at the desired dose. The effects of the compound or saline on thermal nociception were assessed every 10 min for up to 60 min following i.t. administration.
Moreover, tail flick latencies were converted into the percent maximal possible effect (% MPE) at the time of maximal peak of analgesia. % MPE were calculated according to the following formula: % MPE=[(Test latency)−(Saline latency)]/[(Cutoff)−(Saline latency)]×100. Data are expressed as mean±SEM of 5-8 animals for each dose.
Then, ED50 values were determined using the dose-response stimulation log(agonist) vs response (four parameters).
Data are expressed as mean±standard errors of the mean (SEM). All graphs and statistical analysis were performed using GraphPad Prism™ 7 (GraphPad software, La Jolla, CA, USA). […] A two-way ANOVA followed by Tukey's multiple comparisons test was used to determine the significant differences in changes in body temperature between different concentrations of compounds and saline (FIG. 9). The % MPE for the tail-flick test and the areas under the curve for the formalin test were analyzed using a one-way ANOVA followed by a Dunnett's multiple comparisons test to compare different concentrations of compounds and saline treatment (FIGS. 2B, 4B, 7A-B and 8B-D). […] Nonlinear regression using three parameters was performed for % of ileum relaxation and IC50 value was obtained from the resulting dose-response curve (FIG. 11). A difference in response was considered significant with p-values *p<0.05, **p<0.01, ***p<0.001 and **p<0.0001.

hNTS1 receptor = molecular target: T2, hNTS1 receptor (Homo sapiens, UniProt P30989); experiment: Competitive radioligand binding assay on the hNTS1 receptor; details: membranes of CHO-K1 cells expressing hNTS1
T2 construct: membranes prepared from them
T2 sequence (P30989 whole entry): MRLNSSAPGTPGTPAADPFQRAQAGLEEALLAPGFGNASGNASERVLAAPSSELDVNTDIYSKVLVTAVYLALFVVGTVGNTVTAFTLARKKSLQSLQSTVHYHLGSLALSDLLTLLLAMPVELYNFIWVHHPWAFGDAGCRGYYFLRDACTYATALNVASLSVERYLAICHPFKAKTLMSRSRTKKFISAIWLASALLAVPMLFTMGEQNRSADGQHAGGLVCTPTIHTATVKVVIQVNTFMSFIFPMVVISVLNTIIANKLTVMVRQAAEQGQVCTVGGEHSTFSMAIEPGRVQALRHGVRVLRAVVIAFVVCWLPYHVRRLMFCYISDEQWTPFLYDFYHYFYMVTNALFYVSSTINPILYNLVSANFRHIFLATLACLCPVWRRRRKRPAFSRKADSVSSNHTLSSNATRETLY
Outline: as §1

[1] = IC50 NTS1, displacement of 125I-[Tyr3]-NT
[2] = displacement of 125I-[Tyr3]-NT, read-out: IC50 NTS1

| IC50 (hNTS2 receptor) [µM] | pIC50 (hNTS1 receptor; [2]) | SMILES | pIC50 (ileum) | pIC50 (hNTS2 receptor) | Selectivity (hNTS2 receptor) | latency of the tail-flick reflex compared to baseline (Sprague-Dawley rats) | pIC50 (hNTS1 receptor; [1]) | Acute pain (tail beam) (i.t.) (Sprague-Dawley rats; rat) |
| --- | --- | --- | --- | --- | --- | --- | --- | --- |
|  |  | CC[C@H](C)[C@H](NC(=O)[C@H](Cc1ccc(O)cc1)NC(=O)[C@@H]1CCCN1C(=O)[C@H](CCCNC(=N)N)NC(=O)[C@@H](N)CCCNC(=N)N)C(=O)N[C@@H](CC(C)C)C(=O)O [NT(8-13), Neurotensin 8-13, reference compound] | 8.41 |  |  |  |  |  |
|  |  | CC(C)C[C@H](NC(=O)[C@H](Cc1ccc(Br)cc1)NC(=O)[C@@H]1CC=CC[C@H](N)C(=O)N[C@@H](CCCCN)C(=O)N[C@@H](CCCCN)C(=O)N1)C(=O)O [compound 116, c[G(All)KKG(All)]F(4-bromo)L] (H-[AllylGly]KK[AllylGly][Phe(4-Br)]L-OH; staple 1-4) |  | 7.81 | >6443 | sustainably increased latency | < 4.00 |  |
|  |  | CC1(C(=O)N[C@@H](Cc2ccc(Br)cc2)C(=O)N[C@@H](CC2CCCC2)C(=O)O)CCCC=CC[C@H](N)C(=O)N[C@@H](CCCCN)C(=O)N[C@@H](CCCCN)C(=O)N1 (stereo partly drawn) [compound 133, c[G(All)KKG(alpha-Me-(4-pentenyl))]F(4-bromo)A (cyclopentyl)] (H-[AllylGly]KK[ξαMeNle(6-ylidene)][Phe(4-Br)][Ala(cPent)]-OH; staple 1-4) |  | 8.52 | 33333 | sustainably increased latency | < 4.00 |  |
|  |  | CC1(C(=O)N[C@@H](Cc2ccc(O)cc2)C(=O)N[C@@H](CC2CCCC2)C(=O)O)CCCC=CC[C@H](N)C(=O)N[C@@H](CCCCN)C(=O)N[C@@H](CCCCN)C(=O)N1 (stereo partly drawn) [compound 128, c[G(All)KKG((S)-alpha-Me-(4-pentenyl))]YA(cyclopentyl)] (H-[AllylGly]KK[ξαMeNle(6-ylidene)]Y[Ala(cPent)]-OH; staple 1-4) |  | 8.11 | 12788 | sustainably increased latency | < 4.00 |  |
|  |  | NCCCC[C@@H]1NC(=O)[C@H](CCCCN)NC(=O)[C@@H](N)CC=CC[C@@H](C(=O)N[C@@H](Cc2ccc(Br)cc2)C(=O)N[C@@H](CC2CCCC2)C(=O)O)NC1=O [compound 127, c[G(All)KKG(All)]F(4-bromo)A(cyclopentyl)] (H-[AllylGly]KK[AllylGly][Phe(4-Br)][Ala(cPent)]-OH; staple 1-4) |  | 8.70 | 49505 | sustainably increased latency | < 4.00 |  |
| 0.621 | < 4.00 | CC(C)C[C@H](NC(=O)[C@H](Cc1ccc(O)cc1)NC(=O)[C@@H]1CC=CC[C@H](N)C(=O)N[C@H](CCCCN)C(=O)N[C@@H](CCCCN)C(=O)N1)C(=O)O [compound 82, c[G(All)K*KG(All)]YL] (H-[AllylGly][dK]K[AllylGly]YL-OH; staple 1-4) |  |  | >161 |  |  |  |
| 12.4 | < 4.00 | CC(C)C[C@H](NC(=O)[C@H](Cc1ccc(O)cc1)NC(=O)[C@@H]1CC=CC[C@H](N)C(=O)N[C@@H](CCCCN)C(=O)N[C@@H](CCC(=O)O)C(=O)N1)C(=O)O [compound 61, c[G(All)KEG(All)]YL] (H-[AllylGly]KE[AllylGly]YL-OH; staple 1-4) |  |  | >8. |  |  |  |
| 0.048 | < 4.00 | CC(C)C[C@H](NC(=O)[C@H](Cc1cccc(Cl)c1)NC(=O)[C@@H]1CC=CC[C@H](N)C(=O)N[C@@H](CCCCN)C(=O)N[C@@H](CCCCN)C(=O)N1)C(=O)O [compound 113, c[G(All)KKG(All)]F(3-chloro)L] (H-[AllylGly]KK[AllylGly][Phe(3-Cl)]L-OH; staple 1-4) |  |  | >2084 |  |  |  |
| 0.0836 | < 4.00 | CC(C)C[C@H](NC(=O)[C@H](Cc1ccc2ccccc2c1)NC(=O)[C@@H]1CC=CC[C@H](N)C(=O)N[C@@H](CCCCN)C(=O)N[C@@H](CCCCN)C(=O)N1)C(=O)O [compound 112, c[G(All)KKG(All)]A(naphtyl)L] (H-[AllylGly]KK[AllylGly][2Nal]L-OH; staple 1-4) |  |  | >1196 |  |  |  |
|  |  | CC(C)C[C@H](NC(=O)[C@H](Cc1c2ccccc2cc2ccccc12)NC(=O)[C@@H]1CC=CC[C@H](N)C(=O)N[C@@H](CCCCN)C(=O)N[C@@H](CCCCN)C(=O)N1)C(=O)O [compound 162, c[G(All)KKG(All)]A(anthryl-) L] (H-[AllylGly]KK[AllylGly][Ala(9-anthryl)]L-OH; staple 1-4) |  | 7.72 | 5249 |  | < 4.00 |  |
| 0.00867 | < 4.00 | NCCCC[C@@H]1NC(=O)[C@H](CCCCN)NC(=O)[C@@H](N)CC=CC[C@@H](C(=O)N[C@@H](Cc2ccc(O)cc2)C(=O)N[C@@H](CC2CCCCC2)C(=O)O)NC1=O [compound 31, c[G(All)KKG(All)]YA(Ch)] (H-[AllylGly]KK[AllylGly]Y[Cha]-OH; staple 1-4) |  |  | >11534 |  |  |  |

| SMILES | IC50 (hNTS2 receptor) [µM] | pIC50 (hNTS1 receptor; [2]) | pIC50 (ileum) | pIC50 (hNTS2 receptor) | Selectivity (hNTS2 receptor) | latency of the tail-flick reflex compared to baseline (Sprague-Dawley rats) | pIC50 (hNTS1 receptor; [1]) | Acute pain (tail beam) (i.t.) (Sprague-Dawley rats; rat) |
| --- | --- | --- | --- | --- | --- | --- | --- | --- |
| CC(C)C[C@H](NC(=O)[C@H](Cc1ccc(O)cc1)NC(=O)[C@@H]1CC=CCCC(=O)N[C@@H](CCCCN)C(=O)N[C@@H](CCCCN)C(=O)N1)C(=O)O [compound 60, c[K(Pentenoyl)KG(All)]YL] | 0.047 | < 4.00 |  |  | >2127.7 |  |  | No effect (61 nmol/kg) |
